Each block holds one compound with its values, some of them ahead of it. Active and inactive are the calls of the source. The calls are words filed in the database; no cut-off is given here.
Tests used:
[1] = biological target: T1, beta-catenin-B-cell lymphoma 9 protein complex (Homo sapiens, UniProt P35222); experiment: Inhibition of full length beta-catenin (1 to 781 residues) (unknown origin) expressed in Escherichia coli BL21 (DE3)/N-terminal biotinylated human BCL9 HD2 (350 to 375 residues) protein-protein interaction incubated for 1 hr by Alphascreen assay
T1 sequence (P35222 whole entry): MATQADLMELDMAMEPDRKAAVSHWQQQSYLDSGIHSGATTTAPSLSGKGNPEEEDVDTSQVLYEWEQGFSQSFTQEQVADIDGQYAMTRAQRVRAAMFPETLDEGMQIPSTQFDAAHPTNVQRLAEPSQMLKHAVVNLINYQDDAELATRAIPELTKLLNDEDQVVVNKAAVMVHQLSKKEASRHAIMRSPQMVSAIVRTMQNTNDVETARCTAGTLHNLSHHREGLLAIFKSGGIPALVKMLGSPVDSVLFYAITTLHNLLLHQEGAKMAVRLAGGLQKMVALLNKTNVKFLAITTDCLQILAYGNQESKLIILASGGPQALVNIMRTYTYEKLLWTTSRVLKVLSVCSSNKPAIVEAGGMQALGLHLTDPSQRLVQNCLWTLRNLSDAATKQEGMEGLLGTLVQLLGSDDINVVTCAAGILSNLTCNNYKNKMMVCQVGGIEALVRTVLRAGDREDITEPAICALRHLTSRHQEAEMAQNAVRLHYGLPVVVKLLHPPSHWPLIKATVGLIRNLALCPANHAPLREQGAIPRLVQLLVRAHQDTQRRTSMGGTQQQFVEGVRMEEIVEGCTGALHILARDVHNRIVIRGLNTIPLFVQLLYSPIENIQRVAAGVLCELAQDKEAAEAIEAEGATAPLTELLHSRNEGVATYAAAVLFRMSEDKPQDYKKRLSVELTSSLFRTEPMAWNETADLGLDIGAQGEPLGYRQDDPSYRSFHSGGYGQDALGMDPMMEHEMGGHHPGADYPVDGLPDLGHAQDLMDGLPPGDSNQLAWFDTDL
T1 sequence (O00512 whole entry): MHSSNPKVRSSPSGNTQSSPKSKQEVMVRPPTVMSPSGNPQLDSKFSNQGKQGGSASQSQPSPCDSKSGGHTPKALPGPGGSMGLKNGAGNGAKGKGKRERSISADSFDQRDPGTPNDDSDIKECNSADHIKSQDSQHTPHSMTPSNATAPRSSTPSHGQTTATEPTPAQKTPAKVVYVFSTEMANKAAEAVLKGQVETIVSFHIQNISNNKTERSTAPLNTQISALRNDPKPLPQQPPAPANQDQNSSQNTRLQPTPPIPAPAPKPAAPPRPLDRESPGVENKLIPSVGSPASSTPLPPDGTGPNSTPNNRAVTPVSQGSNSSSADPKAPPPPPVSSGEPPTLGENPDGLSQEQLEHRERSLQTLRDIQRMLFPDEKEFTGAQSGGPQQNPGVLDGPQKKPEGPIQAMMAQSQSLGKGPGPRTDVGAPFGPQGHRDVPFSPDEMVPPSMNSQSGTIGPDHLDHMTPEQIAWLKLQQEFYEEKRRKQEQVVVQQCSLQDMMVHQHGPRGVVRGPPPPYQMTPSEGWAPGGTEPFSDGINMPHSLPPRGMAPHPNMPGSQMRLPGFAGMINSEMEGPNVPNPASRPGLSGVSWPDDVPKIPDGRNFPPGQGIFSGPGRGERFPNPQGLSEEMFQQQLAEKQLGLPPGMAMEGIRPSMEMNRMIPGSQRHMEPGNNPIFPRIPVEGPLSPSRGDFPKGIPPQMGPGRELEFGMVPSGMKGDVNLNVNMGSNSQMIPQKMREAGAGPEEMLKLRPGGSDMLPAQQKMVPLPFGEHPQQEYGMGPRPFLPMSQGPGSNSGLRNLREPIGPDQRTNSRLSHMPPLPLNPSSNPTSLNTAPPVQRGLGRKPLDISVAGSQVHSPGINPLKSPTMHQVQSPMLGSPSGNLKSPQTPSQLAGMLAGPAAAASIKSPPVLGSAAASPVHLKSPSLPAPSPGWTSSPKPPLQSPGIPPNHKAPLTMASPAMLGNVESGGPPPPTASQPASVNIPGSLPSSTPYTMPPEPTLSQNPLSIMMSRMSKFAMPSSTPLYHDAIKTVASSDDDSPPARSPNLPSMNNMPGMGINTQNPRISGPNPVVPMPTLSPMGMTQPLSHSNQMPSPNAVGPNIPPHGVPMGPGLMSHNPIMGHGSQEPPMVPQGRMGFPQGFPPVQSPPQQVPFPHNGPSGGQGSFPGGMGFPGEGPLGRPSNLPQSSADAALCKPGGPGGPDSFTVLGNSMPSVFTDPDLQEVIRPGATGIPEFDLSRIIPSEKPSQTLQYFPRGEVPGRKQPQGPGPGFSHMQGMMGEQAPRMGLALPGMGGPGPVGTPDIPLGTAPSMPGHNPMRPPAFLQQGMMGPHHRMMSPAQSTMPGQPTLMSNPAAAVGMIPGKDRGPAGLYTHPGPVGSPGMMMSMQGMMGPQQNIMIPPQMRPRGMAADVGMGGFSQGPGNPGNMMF

[2] = biological target: T1, beta-catenin-B-cell lymphoma 9 protein complex; experiment: Inhibition of full length beta-catenin (1 to 781 residues) (unknown origin) expressed in Escherichia coli BL21 (DE3)/N-terminal biotinylated human BCL9 HD2 (350 to 375 residues) protein-protein interaction assessed as inhibition constant incubated for 1 hr by Alphascreen assay
SW480 [3] = experiment: Inhibition of full length beta-catenin D145A mutant/N-terminal biotinylated human BCL9 HD2 (350 to 375 residues) protein-protein interaction in human SW480 cells at 1 to 10 uM incubated for 3 hr by immunoblot based pull-down assay; assay type: cell-based; conditions: dose 1-10 µM
[4] = biological target: T2, beta-catenin-B-cell lymphoma 9 protein complex (Homo sapiens) (UniProt P35222+O00512); experiment: Inhibition of full length wild type beta-catenin/N-terminal biotinylated human BCL9 HD2 (350 to 375 residues) protein-protein interaction in human SW480 cells at 1 to 10 uM incubated for 3 hr by immunoblot based pull-down assay; assay type: cell-based; conditions: dose 1-10 µM
SW480 [5] = experiment: Inhibition of full length beta-catenin E155A mutant/N-terminal biotinylated human BCL9 HD2 (350 to 375 residues) protein-protein interaction in human SW480 cells at 1 to 10 uM incubated for 3 hr by immunoblot based pull-down assay; assay type: cell-based; conditions: dose 1-10 µM
SW480 [6] = experiment: Inhibition of Wnt/beta-catenin signaling pathway in human SW480 cells assessed as reduction in BCL9L level at 12.5 uM incubated for 24 hrs by qRT-PCR analysis (reference value: 100%); assay type: cell-based; conditions: values are per cent of control
SW480 [7] = experiment: Inhibition of Wnt/beta-catenin signaling pathway in human SW480 cells assessed as reduction in Axin2 level at 12.5 uM incubated for 24 hrs by qRT-PCR analysis (reference value: 100%); assay type: cell-based; conditions: values are per cent of control
SW480 [8] = experiment: Inhibition of Wnt/beta-catenin transactivation signalling in human SW480 cells transfected with renilla luciferase and FOPFlash reporter gene at 1.56 uM incubated for 24 hrs by dual-luciferase assay (reference value: 100%); assay type: cell-based; conditions: values are per cent of control
Homo sapiens [9] = species on record: Homo sapiens; experiment: Selectivity ratio, ratio of Ki for inhibition of full length beta-catenin (1 to 781 residues) (unknown origin) expressed in Escherichia coli BL21 (DE3)/N-terminal biotinylated human BCL9 HD2 (350 to 375 residues) protein-protein interaction to Ki for inhibition of full length beta-catenin (1 to 686 residues) (unknown origin) expressed in Escherichia coli BL21 (DE3)/N-terminal biotinylated human E-cadherin (824 to 877 residues) protein-protein interaction
Homo sapiens [10] = species on record: Homo sapiens; experiment: Selectivity ratio, ratio of IC50 for inhibition of Wnt/beta-catenin transactivation signalling in human HEK293 cells transfected with TOPFlash reporter gene to IC50 for inhibition of Wnt/beta-catenin D145A/E155A mutant transactivation signalling in human HEK293 cells transfected with TOPFlash reporter gene; assay type: cell-based
[11] = biological target: Catenin beta-1/Cadherin-1 (Homo sapiens) (UniProt P35222+P12830); experiment: Inhibition of beta-catenin/E-cadherin protein-protein interaction in human HCT-116 cells at 1 to 12.5 uM incubated for 24 hr by Co-immunoprecipitation assay; assay type: cell-based; conditions: dose 1-12.5 µM
Chain of Catenin beta-1/Cadherin-1 (Homo sapiens) (P12830 155-882 partner limits assumed, one chain of several): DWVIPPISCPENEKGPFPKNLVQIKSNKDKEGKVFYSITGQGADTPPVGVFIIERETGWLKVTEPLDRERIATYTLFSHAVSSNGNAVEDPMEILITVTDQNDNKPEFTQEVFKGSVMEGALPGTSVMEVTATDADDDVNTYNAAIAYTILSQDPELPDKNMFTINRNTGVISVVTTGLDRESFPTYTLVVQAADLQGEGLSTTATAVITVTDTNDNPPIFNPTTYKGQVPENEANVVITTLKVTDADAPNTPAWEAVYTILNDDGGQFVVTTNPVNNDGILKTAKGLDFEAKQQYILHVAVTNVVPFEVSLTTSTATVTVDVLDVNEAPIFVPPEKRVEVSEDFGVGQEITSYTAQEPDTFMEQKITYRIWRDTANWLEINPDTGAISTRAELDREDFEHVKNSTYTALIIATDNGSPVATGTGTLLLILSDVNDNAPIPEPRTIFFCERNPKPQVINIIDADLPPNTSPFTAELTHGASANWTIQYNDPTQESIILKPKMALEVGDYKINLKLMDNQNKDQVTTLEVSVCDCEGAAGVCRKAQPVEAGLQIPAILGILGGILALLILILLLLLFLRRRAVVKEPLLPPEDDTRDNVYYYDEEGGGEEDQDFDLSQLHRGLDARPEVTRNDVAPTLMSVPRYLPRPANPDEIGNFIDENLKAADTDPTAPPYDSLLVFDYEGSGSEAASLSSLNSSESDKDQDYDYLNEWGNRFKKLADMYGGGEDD

[12] = biological target: T2, beta-catenin-B-cell lymphoma 9 protein complex (Homo sapiens); experiment: Inhibition of beta-catenin/BCL9 protein-protein interaction in human HCT-116 cells at 1 to 12.5 uM incubated for 24 hr by Co-immunoprecipitation assay; assay type: cell-based; conditions: dose 1-12.5 µM
SW480 [13] = experiment: Inhibition of Wnt/beta-catenin signaling pathway in human SW480 cells assessed as reduction in HPRT level at 12.5 uM incubated for 24 hrs by qRT-PCR analysis (reference value: 100%); assay type: cell-based; conditions: values are per cent of control
SW480 [14] = experiment: Inhibition of Wnt/beta-catenin signaling pathway in human SW480 cells assessed as reduction in MMP7 level at 12.5 uM incubated for 24 hrs by qRT-PCR analysis (reference value: 100%); assay type: cell-based; conditions: values are per cent of control
SW480 [15] = experiment: Inhibition of Wnt/beta-catenin transactivation signalling in human SW480 cells transfected with renilla luciferase and FOPFlash reporter gene at 3.125 uM incubated for 24 hrs by dual-luciferase assay (reference value: 100%); assay type: cell-based; conditions: values are per cent of control
SW480 [16] = experiment: Inhibition of Wnt/beta-catenin signaling pathway in human SW480 cells assessed as reduction in Axin2 level at 1 to 12.5 uM incubated for 24 hrs by western blot analysis; assay type: cell-based; conditions: dose 1-12.5 µM
SW480 [17] = experiment: Inhibition of Wnt/beta-catenin transactivation signalling in human SW480 cells transfected with renilla luciferase and FOPFlash reporter gene at 6.25 uM incubated for 24 hrs by dual-luciferase assay (reference value: 100%); assay type: cell-based; conditions: values are per cent of control

IC50 [1]: > 100 µM
Ki [2]: > 84 µM
Structure (SMILES): CN(C)C(=O)c1ccc(N2CCNCC2)cc1OC1CCN(C(=O)c2ccc(O[C@H]3CCNC3)c(C3CCC(C(C)(C)C)CC3)c2)CC1 (mixture of isomers)

IC50 [1]: 47 µM
Ki [2]: 38 µM
Structure (SMILES): CNC(=O)c1ccc(N2CCNCC2)cc1OC1CCN(C(=O)c2ccc(O[C@H]3CCNC3)c(C3CCC(C(C)(C)C)CC3)c2)CC1 (mixture of isomers)

IC50 [1]: 20 µM
Ki [2]: 16 µM
Structure (SMILES): CC(C)(C)C1CCC(c2cc(C(=O)N3CCC(Oc4cc(N5CCNCC5)ccc4C(N)=O)CC3)ccc2O[C@H]2CCNC2)CC1 (mixture of isomers)

inhibition [4]: Active
Structure (SMILES): CC(C)(C)C1CCC(c2cc(C(=O)N3CCC(Oc4cc(N5CCNCC5)ccc4C#N)CC3)ccc2O[C@@H]2CNC[C@H]2OCCOCCOCCNC(=O)CCCC[C@@H]2SC[C@@H]3NC(=O)N[C@@H]32)CC1 (mixture of isomers)
inhibition (SW480 [3]): inactive
inhibition (SW480 [5]): inactive

Structure (SMILES): CC(C)(C)C1CCC(c2cc(C(=O)N3CCC(Oc4cc(N5CCNCC5)ccc4C#N)CC3)ccc2O[C@H]2CCNC2)CC1 (mixture of isomers; 36)
IC50 [1]: 1.5 µM
Ki [2]: 1.2 µM

Structure (SMILES): CC(C)(C)C1CCC(c2cc(C(=O)N3CCC(Oc4cc(N5CCNCC5)ccc4C#N)CC3)ccc2O[C@H]2CCNC2)CC1 (mixture of isomers; 44)
IC50 [1]: 3.3 µM
Ki [2]: 2.7 µM

Structure (SMILES): CC(C)(C)C1CCC(c2cc(C(=O)N3CCC(Oc4cc(N5CCNCC5)ccc4C#N)CC3)ccc2O[C@H]2CCNC2)CC1 (mixture of isomers; cis)
response, % of control (SW480 [6]): 18.6%
response, % of control (SW480 [7]): 9.28%
residual activity (SW480 [8]): 100%
Ratio Ki (Homo sapiens [9]): 20
Ratio IC50 (Homo sapiens [10]): 4.2
inhibition [11]: inactive
inhibition [12]: Active
response, % of control (SW480 [13]): 99.6%
response, % of control (SW480 [14]): 41.8%
residual activity (SW480 [15]): 104%
inhibition (SW480 [16]): Active
residual activity (SW480 [17]): 96.5%
